Results reported in US20160038468A1 (priority 2013, published 2016).
Values after ≈ are worked out from the molar mass of the structure shown. Read-outs that look alike come from different tables or passages of the source.

What was measured:
Assay type in all cases: cell-based
Finegoldia magna = test: Agar dilution MIC (CLSI), Finegoldia magna vaginal isolates; details: for MIC: read-out: Minimal Inhibitory Concentration (MIC); for Number of strains with indicated MIC: 20 samples
Mobiluncus all species = test: Agar dilution MIC (CLSI), Mobiluncus all species; details: # tested 40
Prevotella bivia = test: Agar dilution MIC (CLSI), Prevotella bivia vaginal isolates; details: for Number of strains with indicated MIC: 34 samples; for MIC: read-out: Minimal Inhibitory Concentration (MIC)
M. curtisii = test: Agar dilution MIC (CLSI), M. curtisii vaginal isolates; details: for Number of strains with indicated MIC: 14 samples; for MIC: read-out: Minimal Inhibitory Concentration (MIC)
Prevotella amnii = test: Agar dilution MIC (CLSI), Prevotella amnii vaginal isolates; details: for Number of strains with indicated MIC: 33 samples; for MIC: read-out: Minimal Inhibitory Concentration (MIC)
Mobiluncus spp = test: Agar dilution MIC (CLSI), Mobiluncus spp vaginal isolate; details: read-out: Minimal Inhibitory Concentration (MIC)

## CCC[C@@H]1C[C@@H](C(=O)N[C@@H]([C@H]2O[C@H](SC)[C@H](O)[C@@H](O)[C@H]2O)[C@H](C)Cl)N(C)C1 [Clindamycin]
Finegoldia magna; Finegoldia magna, isolate 301303V D
  MIC: 8 µg/mL (≈ 18.8 µM)
Finegoldia magna; Finegoldia magna, isolate 601205V 39
  MIC: 8 µg/mL (≈ 18.8 µM)
Finegoldia magna; Finegoldia magna, isolate 601275V c
  MIC: 128 µg/mL (≈ 301 µM)
Finegoldia magna; Finegoldia magna, isolate 601276V 23
  MIC: 0.5 µg/mL (≈ 1.18 µM)
Finegoldia magna; Finegoldia magna, isolate 601283V 14
  MIC: 4 µg/mL (≈ 9.41 µM)
Finegoldia magna; Finegoldia magna, isolate 601295V 25
  MIC: 0.25 µg/mL (≈ 0.588 µM)
Finegoldia magna; Finegoldia magna, isolate 601298V 30
  MIC: 128 µg/mL (≈ 301 µM)
Finegoldia magna; Finegoldia magna, isolate 601308V 24
  MIC: 0.25 µg/mL (≈ 0.588 µM)
Finegoldia magna; Finegoldia magna, isolate 601315V 17
  MIC: 4 µg/mL (≈ 9.41 µM)
Finegoldia magna; Finegoldia magna, isolate 601315V 17A
  MIC: 4 µg/mL (≈ 9.41 µM)
Finegoldia magna; Finegoldia magna, isolate 601320V 24
  MIC: 0.5 µg/mL (≈ 1.18 µM)
Finegoldia magna; Finegoldia magna, isolate 601323V K
  MIC: 0.25 µg/mL (≈ 0.588 µM)
Finegoldia magna; Finegoldia magna, isolate 601330V c
  MIC: 0.25 µg/mL (≈ 0.588 µM)
Finegoldia magna; Finegoldia magna, isolate 601335V c1
  MIC: 0.5 µg/mL (≈ 1.18 µM)
Finegoldia magna; Finegoldia magna, isolate 601340V 27
  MIC: 0.25 µg/mL (≈ 0.588 µM)
Finegoldia magna; Finegoldia magna, isolate 601359V c
  MIC: 0.25 µg/mL (≈ 0.588 µM)
Finegoldia magna; Finegoldia magna, isolate 601363V 6
  MIC: 0.03 µg/mL (≈ 0.0706 µM)
Finegoldia magna; Finegoldia magna, isolate 601367V c
  MIC: 0.5 µg/mL (≈ 1.18 µM)
Finegoldia magna; Finegoldia magna
  MIC: > 128 µg/mL
Finegoldia magna; Finegoldia magna, # tested 20
  MIC50: 0.5 µg/mL (≈ 1.18 µM)
  MIC90: 128 µg/mL (≈ 301 µM)
Finegoldia magna; MIC 0.03 μg/ml
  Number of strains with indicated MIC: 1
Finegoldia magna; MIC 8 μg/ml
  Number of strains with indicated MIC: 2
Finegoldia magna; MIC >[…]
  Number of strains with indicated MIC: 2
Finegoldia magna; isolate 601214V F
  Minimal Inhibitory Concentration (MIC): >128 µg/mL
Mobiluncus all species
  MIC50: 0.125 µg/mL (≈ 0.294 µM)
  MIC90: 0.25 µg/mL (≈ 0.588 µM)
Mobiluncus all species; number (%) of isolates
  Susceptible: 38 (95) μg/ml
Mobiluncus all species; number (%) of isolates, resistance: rifaximin >32, metronidazole >32, clindamycin >8 μg/ml
  Resistant: 2 (5) μg/ml
Prevotella bivia; MIC 0.03 μg/ml
  Number of strains with indicated MIC: 8
Prevotella bivia; MIC 0.06 μg/ml
  Number of strains with indicated MIC: 1
Prevotella bivia; MIC >[…]
  Number of strains with indicated MIC: 25
Prevotella bivia; Prevotella bivia, isolate 601203 5
  MIC: 0.03 µg/mL (≈ 0.0706 µM)
Prevotella bivia; Prevotella bivia, isolate 601212 9
  MIC: 0.03 µg/mL (≈ 0.0706 µM)
Prevotella bivia; Prevotella bivia, isolate 601293 22
  MIC: 0.03 µg/mL (≈ 0.0706 µM)
Prevotella bivia; Prevotella bivia, isolate 601355 B
  MIC: 0.06 µg/mL (≈ 0.141 µM)
Prevotella bivia; Prevotella bivia, isolate 601367 M
  MIC: 0.03 µg/mL (≈ 0.0706 µM)
Prevotella bivia; Prevotella bivia, isolate 601388 T
  MIC: 0.03 µg/mL (≈ 0.0706 µM)
Prevotella bivia; Prevotella bivia, isolate 601389 J
  MIC: 0.03 µg/mL (≈ 0.0706 µM)
Prevotella bivia; Prevotella bivia, isolate 601409 V
  MIC: 0.03 µg/mL (≈ 0.0706 µM)
Prevotella bivia; Prevotella bivia, isolate 601410 12
  MIC: 0.03 µg/mL (≈ 0.0706 µM)
Prevotella bivia; Prevotella bivia
  MIC: > 128 µg/mL
Prevotella bivia; Prevotella bivia, # tested 34
  MIC50: > 128 µg/mL
  MIC90: > 128 µg/mL
Prevotella bivia; isolate 601096 25
  Minimal Inhibitory Concentration (MIC): >128 µg/mL
Prevotella bivia; isolate 601166 M
  Minimal Inhibitory Concentration (MIC): >128 µg/mL
Prevotella bivia; isolate 601202 21
  Minimal Inhibitory Concentration (MIC): >128 µg/mL
Prevotella bivia; isolate 601213 9A
  Minimal Inhibitory Concentration (MIC): >128 µg/mL
Prevotella bivia; isolate 601214 B
  Minimal Inhibitory Concentration (MIC): >128 µg/mL
Prevotella bivia; isolate 601241 13
  Minimal Inhibitory Concentration (MIC): >128 µg/mL
Prevotella bivia; isolate 601243 15
  Minimal Inhibitory Concentration (MIC): >128 µg/mL
Prevotella bivia; isolate 601255 10
  Minimal Inhibitory Concentration (MIC): >128 µg/mL
Prevotella bivia; isolate 601261 C
  Minimal Inhibitory Concentration (MIC): >128 µg/mL
Prevotella bivia; isolate 601283 20
  Minimal Inhibitory Concentration (MIC): >128 µg/mL
Prevotella bivia; isolate 601285 14
  Minimal Inhibitory Concentration (MIC): >128 µg/mL
Prevotella bivia; isolate 601305 H
  Minimal Inhibitory Concentration (MIC): >128 µg/mL
Prevotella bivia; isolate 601340 31
  Minimal Inhibitory Concentration (MIC): >128 µg/mL
Prevotella bivia; isolate 601374 A1
  Minimal Inhibitory Concentration (MIC): >128 µg/mL
Prevotella bivia; isolate 601378 B
  Minimal Inhibitory Concentration (MIC): >128 µg/mL
Prevotella bivia; isolate 601379 19
  Minimal Inhibitory Concentration (MIC): >128 µg/mL
Prevotella bivia; isolate 601389 10
  Minimal Inhibitory Concentration (MIC): >128 µg/mL
Prevotella bivia; isolate 601392 14
  Minimal Inhibitory Concentration (MIC): >128 µg/mL
Prevotella bivia; isolate 601429 1
  Minimal Inhibitory Concentration (MIC): >128 µg/mL
Prevotella bivia; isolate 601433 19
  Minimal Inhibitory Concentration (MIC): >128 µg/mL
Prevotella bivia; isolate 601449 E
  Minimal Inhibitory Concentration (MIC): >128 µg/mL
Prevotella bivia; isolate 601453 A
  Minimal Inhibitory Concentration (MIC): >128 µg/mL
Prevotella bivia; isolate 601455 D1
  Minimal Inhibitory Concentration (MIC): >128 µg/mL
Prevotella bivia; isolate 601458 16
  Minimal Inhibitory Concentration (MIC): >128 µg/mL
Prevotella bivia; number (%) of isolates, # tested 34
  Susceptible: 9 (26) μg/ml
Prevotella bivia; number (%) of isolates, # tested 34, resistance: rifaximin >32, metronidazole >32, clindamycin >8 μg/ml
  Resistant: 25 (74) μg/ml
M. curtisii; MIC 0.06 μg/ml
  Number of strains with indicated MIC: 3
M. curtisii; MIC 32 μg/ml
  Number of strains with indicated MIC: 1
M. curtisii; MIC >[…]
  Number of strains with indicated MIC: 1
M. curtisii; individual isolates recovered from the vagina 2009-2012, one line per isolate (id in c0/c1 of the row)
  MIC: 64 µg/mL (≈ 151 µM)
M. curtisii
  MIC: > 128 µg/mL
Prevotella amnii; # tested 33
  MIC Range: 0.03 to 128 µg/mL
Prevotella amnii; MIC 0.03 μg/ml
  Number of strains with indicated MIC: 32
Prevotella amnii; MIC […]
  Number of strains with indicated MIC: 1
Prevotella amnii; Prevotella amnii, isolate 601203 4
  MIC: 0.03 µg/mL (≈ 0.0706 µM)
Prevotella amnii; Prevotella amnii, isolate 601256 11
  MIC: 0.03 µg/mL (≈ 0.0706 µM)
Prevotella amnii; Prevotella amnii, isolate 601258 25
  MIC: 0.03 µg/mL (≈ 0.0706 µM)
Prevotella amnii; Prevotella amnii, isolate 601261 E
  MIC: 0.03 µg/mL (≈ 0.0706 µM)
Prevotella amnii; Prevotella amnii, isolate 601266 20
  MIC: 0.03 µg/mL (≈ 0.0706 µM)
Prevotella amnii; Prevotella amnii, isolate 601278 10
  MIC: 0.03 µg/mL (≈ 0.0706 µM)
Prevotella amnii; Prevotella amnii, isolate 601287 HH
  MIC: 0.03 µg/mL (≈ 0.0706 µM)
Prevotella amnii; Prevotella amnii, isolate 601291 41
  MIC: 0.03 µg/mL (≈ 0.0706 µM)
Prevotella amnii; Prevotella amnii, isolate 601293 29
  MIC: 0.03 µg/mL (≈ 0.0706 µM)
Prevotella amnii; Prevotella amnii, isolate 601305 A
  MIC: 0.03 µg/mL (≈ 0.0706 µM)
Prevotella amnii; Prevotella amnii, isolate 601311 K
  MIC: 0.03 µg/mL (≈ 0.0706 µM)
Prevotella amnii; Prevotella amnii, isolate 601314 19
  MIC: 0.03 µg/mL (≈ 0.0706 µM)
Prevotella amnii; Prevotella amnii, isolate 601318 G
  MIC: 0.03 µg/mL (≈ 0.0706 µM)
Prevotella amnii; Prevotella amnii, isolate 601336 33
  MIC: 0.03 µg/mL (≈ 0.0706 µM)
Prevotella amnii; Prevotella amnii, isolate 601340 37
  MIC: 128 µg/mL (≈ 301 µM)
Prevotella amnii; Prevotella amnii, isolate 601341 H
  MIC: 0.03 µg/mL (≈ 0.0706 µM)
Prevotella amnii; Prevotella amnii, isolate 601350 A
  MIC: 0.03 µg/mL (≈ 0.0706 µM)
Prevotella amnii; Prevotella amnii, isolate 601365 6
  MIC: 0.03 µg/mL (≈ 0.0706 µM)
Prevotella amnii; Prevotella amnii, isolate 601368 24
  MIC: 0.03 µg/mL (≈ 0.0706 µM)
Prevotella amnii; Prevotella amnii, isolate 601369 13
  MIC: 0.03 µg/mL (≈ 0.0706 µM)
Prevotella amnii; Prevotella amnii, isolate 601375 L
  MIC: 0.03 µg/mL (≈ 0.0706 µM)
Prevotella amnii; Prevotella amnii, isolate 601377 9
  MIC: 0.03 µg/mL (≈ 0.0706 µM)
Prevotella amnii; Prevotella amnii, isolate 601379 24
  MIC: 0.03 µg/mL (≈ 0.0706 µM)
Prevotella amnii; Prevotella amnii, isolate 601388 G
  MIC: 0.03 µg/mL (≈ 0.0706 µM)
Prevotella amnii; Prevotella amnii, isolate 601399 10
  MIC: 0.03 µg/mL (≈ 0.0706 µM)
Prevotella amnii; Prevotella amnii, isolate 601405 A
  MIC: 0.03 µg/mL (≈ 0.0706 µM)
Prevotella amnii; Prevotella amnii, isolate 601411 L
  MIC: 0.03 µg/mL (≈ 0.0706 µM)
Prevotella amnii; Prevotella amnii, isolate 601413 10
  MIC: 0.03 µg/mL (≈ 0.0706 µM)
Prevotella amnii; Prevotella amnii, isolate 601418 27
  MIC: 0.03 µg/mL (≈ 0.0706 µM)
Prevotella amnii; Prevotella amnii, isolate 601426 A
  MIC: 0.03 µg/mL (≈ 0.0706 µM)
Prevotella amnii; Prevotella amnii, isolate 601430 14
  MIC: 0.03 µg/mL (≈ 0.0706 µM)
Prevotella amnii; Prevotella amnii, isolate 601434 13
  MIC: 0.03 µg/mL (≈ 0.0706 µM)
Prevotella amnii; Prevotella amnii, isolate 601458 13
  MIC: 0.03 µg/mL (≈ 0.0706 µM)
Prevotella amnii; Prevotella amnii, # tested 33
  MIC50: 0.03 µg/mL (≈ 0.0706 µM)
  MIC90: 0.03 µg/mL (≈ 0.0706 µM)
Prevotella amnii; number (%) of isolates, # tested 33
  Susceptible: 32 (97) μg/ml
Prevotella amnii; number (%) of isolates, # tested 33, resistance: rifaximin >32, metronidazole >32, clindamycin >8 μg/ml
  Resistant: 1 (3) μg/ml
Mobiluncus spp
  MIC: 4 µg/mL (≈ 9.41 µM)
